Test system: HBV cccDNA
Assay: Decay kinetics of established cccDNA and HBsAg secretion under treatment from 3 dpi to 20 dpi
Type: cell-based, HBV (Genotype D)
Conditions: HepG2-hNTCP, treatment from 3 dpi through 20 dpi
Method: (5A) HBV infection and treatment schedule. On day 0 HepG2-hNTCP cells were infected with HBV at moi of 1000 Geq/cell, incubated for 24 hr, and media was replaced. On day three the cells were harvested or treated with DMSO, ETV (500 nM), F7 (10 μM), poly-U/UC (100 ng/ml), or with ETC combination with F7 or poly-U/UC, PAMP. Cells were harvested at the indicated points over a 20-day time course. (5B), (5C) DNA was isolated by Hirt extract and subjected to Southern blot analysis using an HBV-specific DNA probe. Percentage values below each lane indicate the relative amount of cccDNA compared to day three control prior to each treatment. The positions of mass markers are indicated. (5D) cccDNA levels were measured by RT-qPCR. Relative cccDNA values to mitochondrial DNA (MT-CO3) are shown. Statistical significance was determined using Student's t test. Data are presented as mean standard deviation (SD), *P<0.01, **P<0.005, ***P<0.001 and ns=non-significant (E) Half-life of cccDNA from RT-qPCR analyses was estimated from the simultaneous fitting of three replicates under each treatment strategy. C(t) is the % values of cccDNA at time ‘t’ post-treatment, C(0) is the % values of cccDNA at the start of the treatment. (5F) HBsAg across the time course for each treatment series. Statistical significance as determined using Student's t test. Data are presented as mean standard deviations (SD), **P<0.005, and ns=non-significant.
ETV is a nucleoside analog that prevents the viral reverse transcription and replication of new synthesized HBV DNAs, thereby preventing the replenishment of cccDNA by de novo formation. ETV was applied to HBV-infected cultures at a 100-fold IC50 (Langley, D. R., et al. (2007). Inhibition of Hepatitis B Virus Polymerase by Entecavir. Journal of virology 81, 3992-4001) thereby allowing for the measurement of cccDNA half-life under conditions in which levels are sustained only from the initial cccDNA pool. Cells were then harvested over a treatment time course, and DNA extracts were analyzed by Southern blot and qPCR assay. […] J Hepatol 69, 1231-1241). […] Enhanced cccDNA decay kinetics by F7 treatment was also confirmed by RT-PCR analysis (FIG. 5D). […] Thus, F7 and poly-U/UC PAMP impart the therapeutic decay of established cccDNA.
Reverse transcription quantitative real time qPCR (RT-qPCR) analysis: Total cellular RNAs were extracted from cells using TRIZOL reagent and the manufacturers protocol (Invitrogen). cDNA was synthesized from the purified RNA by both random and oligo (dT) priming using iScript select cDNA synthesis kit (Biorad, Inc.). For HBV cccDNA expression analysis, total DNA was extracted using the DNeasy kit (QIAGEN). For selective cccDNA PCR analysis, isolated DNAs were treated with 10 Units of T5 exonuclease (NEB) for 30 min in 10 μl of reaction volume in 37° C., followed by heat-inactivation at 95° C. for 5 min and 4-fold dilution with Nuclease-free water. For extra-cellular HBV DNA quantification, an external HBV plasmid standard was used to program the PCR (Ko, C., et al. (2018), supra).

C=C1[C@H](CO)[C@@H](O)C[C@@H]1n1cnc2c(=O)[nH]c(N)nc21 [ETV, Entecavir, reference compound]
production and secretion of HBsAg: Neither ETV nor X RNA treatment of cells had any effect | cccDNA levels over treatment time course (Southern blot, qPCR) (ETV 500 nM, F7 10 μM, poly-U/UC 100 ng/ml): stably maintained cccDNA levels over the time course

Reference: patent publication US20220241314A1, “COMPOSITIONS AND METHODS FOR TREATMENT OF HEPATITIS B VIRUS INFECTION” (priority 2019, published 2022)
